Measurements: article PMC8639918, “Mechanism of phosphate sensing and signaling revealed by rice SPX1-PHR2 complex structure” (Nature Communications, 2021)
Residue numbers refer to the chain shown, from its start.

Columns and labels:
Type in all cases: binding
[1] = target: T1, SPX1^1–259▵N17 (Oryza sativa, UniProt Q69XJ0); test: ITC; conditions: 25 °C; 20 mM HEPES/NaOH pH 7.5, 200 mM NaCl, 2 mM beta-mercaptoethanol
T1 construct: SPX1 1-259 without the N-terminal helix alpha1 (deltaN17, residues 1-17 deleted), N-terminal 10xHis-MsyB tag cut with TEV, E. coli BL21(DE3)
T1 sequence (Q69XJ0 18-259): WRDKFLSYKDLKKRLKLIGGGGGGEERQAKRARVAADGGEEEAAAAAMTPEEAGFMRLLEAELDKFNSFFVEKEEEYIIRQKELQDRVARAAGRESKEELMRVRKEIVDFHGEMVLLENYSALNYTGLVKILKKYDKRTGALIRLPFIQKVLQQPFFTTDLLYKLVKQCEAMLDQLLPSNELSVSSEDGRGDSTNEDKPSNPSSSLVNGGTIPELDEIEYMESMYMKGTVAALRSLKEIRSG

[2] = target: T2, SPX1^1–259 (Oryza sativa, UniProt Q69XJ0, Y25F/K29A/K151A); test: ITC; conditions: 25 °C; 20 mM HEPES/NaOH pH 7.5, 200 mM NaCl, 2 mM beta-mercaptoethanol
T2 construct: residues 1-259 (C-terminally truncated), N-terminal 10xHis-MsyB tag cut with TEV, E. coli BL21(DE3), monomer
T2 sequence (Q69XJ0 1-259 Y25F/K29A/K151A): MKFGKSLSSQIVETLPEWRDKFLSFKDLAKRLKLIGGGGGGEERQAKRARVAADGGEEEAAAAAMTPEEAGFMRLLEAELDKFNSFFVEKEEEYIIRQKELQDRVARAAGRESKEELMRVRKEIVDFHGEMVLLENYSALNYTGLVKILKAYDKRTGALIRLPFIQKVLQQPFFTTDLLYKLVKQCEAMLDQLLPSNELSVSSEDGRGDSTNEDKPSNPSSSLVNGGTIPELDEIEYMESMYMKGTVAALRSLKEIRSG

[3] = target: T3, InsP6-SPX1-PHR2 complex (Oryza sativa, UniProt Q69XJ0); test: X-ray crystal structure, […] Å; conditions: basic groove between SPX1 helices α1, α2 and α4; allosteric
T3 construct: SPX1 1-198 with T4 lysozyme fused to its C-terminus (crystallisation aid) plus Se-Met PHR2 248-380 (MYB and CC domains), tags cut with TEV, E. coli BL21(DE3), 1:1 heterodimer; with Protein PHOSPHATE STARVATION RESPONSE 2
T3 sequence (Q69XJ0 1-198): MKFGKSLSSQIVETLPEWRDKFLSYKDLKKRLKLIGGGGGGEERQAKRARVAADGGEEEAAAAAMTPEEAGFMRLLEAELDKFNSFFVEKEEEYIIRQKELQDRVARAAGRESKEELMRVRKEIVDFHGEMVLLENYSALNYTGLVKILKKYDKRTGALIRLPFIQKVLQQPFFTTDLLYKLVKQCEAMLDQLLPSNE
T3 sequence (Q6Z156 with tags, fused parts or gaps V263M/L278M/L295M/L340M partner): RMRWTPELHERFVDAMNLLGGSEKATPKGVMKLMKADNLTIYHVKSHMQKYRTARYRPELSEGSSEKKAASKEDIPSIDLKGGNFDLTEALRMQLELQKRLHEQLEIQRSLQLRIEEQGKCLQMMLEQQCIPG

[4] = target: T4, SPX1^1–259 (Oryza sativa, UniProt Q69XJ0); test: thermal shift assay (SYPRO Orange); conditions: 20 mM HEPES/NaOH pH 7.5, 200 mM NaCl; InsP6 0 to 250 μM
T4 construct: residues 1-259 (C-terminally truncated), N-terminal 10xHis-MsyB tag cut with TEV, E. coli BL21(DE3), monomer
T4 sequence (Q69XJ0 1-259): T2 sequence (Q69XJ0 1-259 Y25F/K29A/K151A) with F25Y, A29K, A151K

[5] = target: T4, SPX1^1–259; test: ITC; conditions: 25 °C; 20 mM HEPES/NaOH pH 7.5, 200 mM NaCl, 2 mM beta-mercaptoethanol
From the text: ITC on SPX1^1–259 | In contrast to the moderate InsP6 binding ability of the wild-type protein

[6] = target: T5, SPX1^1–259 (Oryza sativa, UniProt Q69XJ0, K147A); test: ITC
T5 construct: residues 1-259 (C-terminally truncated), N-terminal 10xHis-MsyB tag cut with TEV, E. coli BL21(DE3), monomer
T5 sequence (Q69XJ0 1-259 K147A): T2 sequence (Q69XJ0 1-259 Y25F/K29A/K151A) with F25Y, A29K, K147A, A151K
From the text: ITC on SPX1^1–259 | SPX1 K147A mutation had little effect on InsP6 binding affinity

`O=P(O)(O)O[C@H]1[C@H](OP(=O)(O)O)[C@@H](OP(=O)(O)O)[C@H](OP(=O)(O)O)[C@@H](OP(=O)(O)O)[C@H]1OP(=O)(O)O` [InsP6] was tested, and the Kd [1] was 34.1 ± 1.95 µM, the Kd [2] was “the SPX1 mutant lost its InsP6-binding activity” and the “X-ray crystal structure, 2.6 Å” value [3] was “each captured by an SPX1 molecule via a highly basic surface groove”. The Tm [4] was “InsP6 could increase the melting temperature (Tm) of SPX1 greatly”, the Kd [5] was 5.5 ± 0.93 µM and the Kd [6] was 5.69 ± 1.46 µM.
